{"source": "ChEMBL document CHEMBL3885881", "about": "“DrugMatrix”", "organism": "Rattus norvegicus", "assay": "DrugMatrix - Regimen: Daily Repeat", "assay_type": "toxicity, organism-based, Sprague-Dawley", "set-up": "regimen Daily Repeat, gender Male, age 6-8 weeks", "conditions": "in vivo, po, route oral GAVAGE, vehicle .5 % CMC; for ABSOLUTE BASOPHIL / ABSOLUTE EOSINOPHIL / ABSOLUTE LYMPHOCYTE / ABSOLUTE MONOCYTE / ABSOLUTE SEGMENTED NEUTROPHIL / BASOPHIL / ERYTHROCYTE COUNT / HEMATOCRIT / HEMOGLOBIN / LYMPHOCYTE / MEAN CORPUSCULAR HEMOGLOBIN / MEAN CORPUSCULAR HEMOGLOBIN CONCENTRATION / MEAN CORPUSCULAR VOLUME / NEUTROPHIL / NUCLEATED RED BLOOD CELLS / PLATELET COUNT: tissue Blood; for ALANINE AMINOTRANSFERASE / ALKALINE PHOSPHATASE / ASPARTATE AMINOTRANSFERASE / BLOOD UREA NITROGEN / CHOLESTEROL / CREATINE PHOSPHOKINASE / CREATININE / GLUCOSE / LACTATE DEHYDROGENASE / LIPASE / PHOSPHORUS / POTASSIUM / SODIUM / TOTAL BILIRUBIN / TOTAL PROTEIN / CARBON DIOXIDE: tissue Plasma", "key": {"[1]": {"conditions": "0.06 mg/kg, 120 h, dose level Low, time 5 day"}, "[2]": {"conditions": "[…], 72 h, dose 0.25 mg/Kg, dose level High, time 3 day"}, "[3]": {"conditions": "[…], 120 h, dose 0.25 mg/Kg, dose level High, time 5 day"}}}
{"compound": "CC(=O)CC(c1ccccc1)c1c(O)c2ccccc2oc1=O", "note": "(stereo not given) [WARFARIN]", "values": [{"measurement": "ABSOLUTE BASOPHIL", "setting": "[1]", "value": 0, "unit": "CELLS/uL"}, {"measurement": "ABSOLUTE EOSINOPHIL", "setting": "[1]", "value": 123.33, "unit": "CELLS/uL"}, {"measurement": "ABSOLUTE LYMPHOCYTE", "setting": "[1]", "value": 12690, "unit": "CELLS/uL"}, {"measurement": "ABSOLUTE MONOCYTE", "setting": "[1]", "value": 175.33, "unit": "CELLS/uL"}, {"measurement": "ABSOLUTE SEGMENTED NEUTROPHIL", "setting": "[1]", "value": 1111.33, "unit": "CELLS/uL"}, {"measurement": "BASOPHIL", "setting": "[1]", "value": 0, "unit": "%"}, {"measurement": "ERYTHROCYTE COUNT", "setting": "[1]", "value": 5.59, "unit": "x10E6/uL"}, {"measurement": "HEMATOCRIT", "setting": "[1]", "value": 35.53, "unit": "%"}, {"measurement": "HEMOGLOBIN", "setting": "[1]", "value": 13.5, "unit": "G/DL"}, {"measurement": "LYMPHOCYTE", "setting": "[1]", "value": 90, "unit": "%"}, {"measurement": "MEAN CORPUSCULAR HEMOGLOBIN", "setting": "[1]", "value": 24.2, "unit": "pg"}, {"measurement": "MEAN CORPUSCULAR HEMOGLOBIN CONCENTRATION", "setting": "[1]", "value": 38, "unit": "G/DL"}, {"measurement": "MEAN CORPUSCULAR VOLUME", "setting": "[1]", "value": 63.67, "unit": "fL"}, {"measurement": "NEUTROPHIL", "setting": "[1]", "value": 8, "unit": "%"}, {"measurement": "NUCLEATED RED BLOOD CELLS", "setting": "[1]", "value": "0 /100WBC"}, {"measurement": "PLATELET COUNT", "setting": "[1]", "value": 1320.67, "unit": "x10E3/uL"}, {"measurement": "ALANINE AMINOTRANSFERASE", "setting": "[1]", "value": 47.33, "unit": "u/L"}, {"measurement": "ALKALINE PHOSPHATASE", "setting": "[1]", "value": 339.67, "unit": "u/L"}, {"measurement": "ASPARTATE AMINOTRANSFERASE", "setting": "[1]", "value": 76.33, "unit": "u/L"}, {"measurement": "BLOOD UREA NITROGEN", "setting": "[1]", "value": 16, "unit": "mg/dL"}, {"measurement": "CHOLESTEROL", "setting": "[1]", "value": 66.67, "unit": "mg/dL"}, {"measurement": "CREATINE PHOSPHOKINASE", "setting": "[1]", "value": 293.33, "unit": "u/L"}, {"measurement": "CREATININE", "setting": "[1]", "value": 0.14, "unit": "mg/dL"}, {"measurement": "GLUCOSE", "setting": "[1]", "value": 149, "unit": "mg/dL"}, {"measurement": "LACTATE DEHYDROGENASE", "setting": "[1]", "value": 203, "unit": "u/L"}, {"measurement": "LIPASE", "setting": "[1]", "value": 9.33, "unit": "u/L"}, {"measurement": "PHOSPHORUS", "setting": "[1]", "value": 13.2, "unit": "mg/dL"}, {"measurement": "POTASSIUM", "setting": "[1]", "value": 6.78, "unit": "MEQ/L"}, {"measurement": "SODIUM", "setting": "[1]", "value": 144.27, "unit": "MEQ/L"}, {"measurement": "TOTAL BILIRUBIN", "setting": "[1]", "value": 0.2, "unit": "mg/dL"}, {"measurement": "TOTAL PROTEIN", "setting": "[1]", "value": 6, "unit": "G/DL"}, {"measurement": "ABSOLUTE BASOPHIL", "setting": "[2]", "value": 0, "unit": "CELLS/uL"}, {"measurement": "ABSOLUTE EOSINOPHIL", "setting": "[2]", "value": 246.33, "unit": "CELLS/uL"}, {"measurement": "ABSOLUTE LYMPHOCYTE", "setting": "[2]", "value": 13716, "unit": "CELLS/uL"}, {"measurement": "ABSOLUTE MONOCYTE", "setting": "[2]", "value": 364, "unit": "CELLS/uL"}, {"measurement": "ABSOLUTE SEGMENTED NEUTROPHIL", "setting": "[2]", "value": 1007, "unit": "CELLS/uL"}, {"measurement": "BASOPHIL", "setting": "[2]", "value": 0, "unit": "%"}, {"measurement": "ERYTHROCYTE COUNT", "setting": "[2]", "value": 5.82, "unit": "x10E6/uL"}, {"measurement": "HEMATOCRIT", "setting": "[2]", "value": 37.73, "unit": "%"}, {"measurement": "HEMOGLOBIN", "setting": "[2]", "value": 14.07, "unit": "G/DL"}, {"measurement": "LYMPHOCYTE", "setting": "[2]", "value": 89.33, "unit": "%"}, {"measurement": "MEAN CORPUSCULAR HEMOGLOBIN", "setting": "[2]", "value": 24.2, "unit": "pg"}, {"measurement": "MEAN CORPUSCULAR HEMOGLOBIN CONCENTRATION", "setting": "[2]", "value": 37.33, "unit": "G/DL"}, {"measurement": "MEAN CORPUSCULAR VOLUME", "setting": "[2]", "value": 64.87, "unit": "fL"}, {"measurement": "NEUTROPHIL", "setting": "[2]", "value": 6.67, "unit": "%"}, {"measurement": "NUCLEATED RED BLOOD CELLS", "setting": "[2]", "value": "0 /100WBC"}, {"measurement": "PLATELET COUNT", "setting": "[2]", "value": 1397.33, "unit": "x10E3/uL"}, {"measurement": "ALANINE AMINOTRANSFERASE", "setting": "[2]", "value": 57, "unit": "u/L"}, {"measurement": "ALKALINE PHOSPHATASE", "setting": "[2]", "value": 354, "unit": "u/L"}, {"measurement": "ASPARTATE AMINOTRANSFERASE", "setting": "[2]", "value": 82, "unit": "u/L"}, {"measurement": "BLOOD UREA NITROGEN", "setting": "[2]", "value": 15.33, "unit": "mg/dL"}, {"measurement": "CARBON DIOXIDE", "setting": "[2]", "value": 25.67, "unit": "mmol/L"}, {"measurement": "CHOLESTEROL", "setting": "[2]", "value": 86, "unit": "mg/dL"}, {"measurement": "CREATINE PHOSPHOKINASE", "setting": "[2]", "value": 467.67, "unit": "u/L"}, {"measurement": "CREATININE", "setting": "[2]", "value": 0.18, "unit": "mg/dL"}, {"measurement": "GLUCOSE", "setting": "[2]", "value": 156, "unit": "mg/dL"}, {"measurement": "LACTATE DEHYDROGENASE", "setting": "[2]", "value": 145, "unit": "u/L"}, {"measurement": "LIPASE", "setting": "[2]", "value": 10.67, "unit": "u/L"}, {"measurement": "PHOSPHORUS", "setting": "[2]", "value": 13.7, "unit": "mg/dL"}, {"measurement": "POTASSIUM", "setting": "[2]", "value": 6.91, "unit": "MEQ/L"}, {"measurement": "SODIUM", "setting": "[2]", "value": 145.27, "unit": "MEQ/L"}, {"measurement": "TOTAL BILIRUBIN", "setting": "[2]", "value": 0.23, "unit": "mg/dL"}, {"measurement": "TOTAL PROTEIN", "setting": "[2]", "value": 5.93, "unit": "G/DL"}, {"measurement": "ABSOLUTE BASOPHIL", "setting": "[3]", "value": 0, "unit": "CELLS/uL"}, {"measurement": "ABSOLUTE EOSINOPHIL", "setting": "[3]", "value": 86.67, "unit": "CELLS/uL"}, {"measurement": "ABSOLUTE LYMPHOCYTE", "setting": "[3]", "value": 13093.33, "unit": "CELLS/uL"}, {"measurement": "ABSOLUTE MONOCYTE", "setting": "[3]", "value": 240.67, "unit": "CELLS/uL"}, {"measurement": "ABSOLUTE SEGMENTED NEUTROPHIL", "setting": "[3]", "value": 779.33, "unit": "CELLS/uL"}, {"measurement": "BASOPHIL", "setting": "[3]", "value": 0, "unit": "%"}, {"measurement": "ERYTHROCYTE COUNT", "setting": "[3]", "value": 5.78, "unit": "x10E6/uL"}, {"measurement": "HEMATOCRIT", "setting": "[3]", "value": 36.23, "unit": "%"}, {"measurement": "HEMOGLOBIN", "setting": "[3]", "value": 13.7, "unit": "G/DL"}, {"measurement": "LYMPHOCYTE", "setting": "[3]", "value": 92, "unit": "%"}, {"measurement": "MEAN CORPUSCULAR HEMOGLOBIN", "setting": "[3]", "value": 23.7, "unit": "pg"}, {"measurement": "MEAN CORPUSCULAR HEMOGLOBIN CONCENTRATION", "setting": "[3]", "value": 37.87, "unit": "G/DL"}, {"measurement": "MEAN CORPUSCULAR VOLUME", "setting": "[3]", "value": 62.63, "unit": "fL"}, {"measurement": "NEUTROPHIL", "setting": "[3]", "value": 5.67, "unit": "%"}, {"measurement": "NUCLEATED RED BLOOD CELLS", "setting": "[3]", "value": "0 /100WBC"}, {"measurement": "PLATELET COUNT", "setting": "[3]", "value": 1328.33, "unit": "x10E3/uL"}, {"measurement": "ALANINE AMINOTRANSFERASE", "setting": "[3]", "value": 45.33, "unit": "u/L"}, {"measurement": "ALKALINE PHOSPHATASE", "setting": "[3]", "value": 285, "unit": "u/L"}, {"measurement": "ASPARTATE AMINOTRANSFERASE", "setting": "[3]", "value": 79.67, "unit": "u/L"}, {"measurement": "BLOOD UREA NITROGEN", "setting": "[3]", "value": 17.33, "unit": "mg/dL"}, {"measurement": "CARBON DIOXIDE", "setting": "[3]", "value": 26.67, "unit": "mmol/L"}, {"measurement": "CHOLESTEROL", "setting": "[3]", "value": 69.67, "unit": "mg/dL"}, {"measurement": "CREATINE PHOSPHOKINASE", "setting": "[3]", "value": 518.33, "unit": "u/L"}, {"measurement": "CREATININE", "setting": "[3]", "value": 0.2, "unit": "mg/dL"}, {"measurement": "GLUCOSE", "setting": "[3]", "value": 156.33, "unit": "mg/dL"}, {"measurement": "LACTATE DEHYDROGENASE", "setting": "[3]", "value": 92.67, "unit": "u/L"}, {"measurement": "LIPASE", "setting": "[3]", "value": 8.67, "unit": "u/L"}, {"measurement": "PHOSPHORUS", "setting": "[3]", "value": 13.27, "unit": "mg/dL"}, {"measurement": "POTASSIUM", "setting": "[3]", "value": 6.55, "unit": "MEQ/L"}, {"measurement": "SODIUM", "setting": "[3]", "value": 147.93, "unit": "MEQ/L"}, {"measurement": "TOTAL BILIRUBIN", "setting": "[3]", "value": 0.17, "unit": "mg/dL"}, {"measurement": "TOTAL PROTEIN", "setting": "[3]", "value": 6.33, "unit": "G/DL"}]}
